The subject of this series is patients with chronic heart failure with reduced ejection fraction (LVEF ≤40%). Particulars: for Any serious adverse event (including death), % of patients / Any serious adverse event (including death), No. of patients: safety population. From the text: All the patients provided written informed consent and entered a 14-day enrollment period during which the trial inclusion and exclusion criteria were checked and baseline information gathered, including findings from clinical examination and laboratory measurements. […] Investigators used an interactive voice or web response system to obtain treatment assignment. Randomization was stratified based on a diagnosis of type 2 diabetes, defined as either an established diagnosis or a HbA1c level of 6.5% or greater (≥48 mmol/mol) confirmed in a central laboratory at screening. Patients were evaluated at 14 days and 60 days after randomization, with a focus on assessment of heart failure and volume status, adverse events, and checking renal function and potassium. Further study visits took place at 4 months and at 4-month intervals thereafter. The protocol required that study drug be permanently discontinued if pregnancy or diabetic ketoacidosis occurred.
KCCQ total symptom score was analyzed as a composite rank-based endpoint, incorporating patient vital status at 8 months along with change in score from baseline to 8 months in surviving patients, using the rank analysis of covariance method, with a corresponding win ratio used to estimate the magnitude of treatment effect.^17 The consistency of the treatment effect among 14 prespecified subgroups were assessed. The prespecified safety analyses included: serious adverse events; adverse events associated with discontinuation of study treatment; “adverse events of interest” i.e., volume depletion, renal events, major hypoglycemic events, bone fractures, diabetic ketoacidosis, amputations; Fournier's gangrene; and laboratory findings of note. […] Fisher's exact test was used to compare rates of adverse events. Analyses were performed using Stata, version 15 (College Station Tex., USA) and R version 3.5.1 (R Foundation for Statistical Computing, Vienna, Austria).

Structures are written as SMILES. Like-named read-outs stand apart in the source and are kept apart here.

As for `CCOc1ccc(Cc2cc([C@@H]3O[C@H](CO)[C@@H](O)[C@H](O)[C@H]3O)ccc2Cl)cc1` [Dapagliflozin, dapagliflozin], for the setting “No T2DM (N = 1295)”, the “Any serious adverse event (including death), % of patients” value was “(34.6) %” and the “Any serious adverse event (including death), No. of patients” value is 448 patients. Further, under “T2DM (N = 1073)”, the “Any serious adverse event (including death), % of patients” value is “(41.7) %” and the “Any serious adverse event (including death), No. of patients” value was 447 patients. In addition, for the setting “human, in vivo”, the “Adverse events of interest: Fournier gangrene, % of patients” value is “(0) %”; the “Adverse events of interest: Fournier gangrene, No. of patients” value is 0 patients; the “Adverse events of interest: Fracture, % of patients” value is given as “(2.1) %”; the “Amputation, No. (%)” value is listed as 13 (0.5) No. (%). Besides, where the note is “human, in vivo”, the “Diabetic Ketoacidosis, No. (%)” value is given as 3 (0.1) No. (%); the “Discontinuation of study drug due to adverse event, No. (%)” value is given as 111 (4.7) No. (%); the “Fournier gangrene, No. (%)” value was 0 (0) No. (%); the “Fracture, No. (%)” value is listed as 49 (2.1) No. (%). Moreover, where the note is “human, in vivo”, the “Major hypoglycemia, No. (%)” value was 4 (0.2) No. (%); the “Serious adverse events related to volume depletion, patients (%)” value is 29 dapagliflozin treated patients (1.2%) patients (%); the “Serious renal adverse events, patients (%)” value is listed as 38 dapagliflozin treated patients (1.6%) patients (%). Moreover, for the setting “in vivo”, the “Fournier gangrene, No. (%)” value is listed as “No case”; the “amputation, cases” value is “twelve”; the “amputation, patients” value is listed as “one”. In addition, the “Any serious adverse event (including death), No. (%)” value (safety population n = 2368) is reported as 895 (37.8) No. (%).

These data come from patent publication US11903955B2, “Methods of treating heart failure with reduced ejection fraction” (ASTRAZENECA AB, priority 2019, dated 2024).
